Peptide text beside a SMILES is read from it.
Columns and labels:
[1] = test system: serotonin output at the nucleus accumbency section of the brain; test: Brain micro-dialysis, serotonin output; assay type: in vivo, rats; conditions: single intracerebroventricular 100 nmol dose, 2 hours of monitoring, versus saline; p<0.001
Method: The source of the antidepressant effects of Gly-Gln, which is mentioned in the figure descriptions above, have been analyzed and shown in Figures 4 and 5. In Figures 4 and 5; the effect of Gly-Gln on the serotonin output at the nucleus accumbency section of the brain upon intracerebroventricular Gly-Gln injection can be seen. […] An increase in serotonin outputs can be observed in all time intervals throughout 2 hours of monitoring period following the Gly-Gln injection; however, no serotonin output could be observed from the rodents in the control group who had been administered saline injections by the same way. Serotonin, which is structurally a monoamine neurotransmitter, is a hormone, which makes people feel happy, energetic and lively. When, the subject matter hormone serotonin is deficient in people, they feel depressive, tired and boring. […] Furthermore, the word "Saline" indicated in Figure 4 and 5 means salty water. It is used for comparing with the tested medication by administering on the control group.

Storage stability = assay type: physicochemical
Method: After, it is diluted by saline; it can be stored in a refrigerator at +4°C between 24-48 hours. It can be stored in room temperature for 10-12 hours.

GABA levels in the brain = GABA levels in the brain after administration (unpublished data); assay type: in vivo; conditions: Gly-Gln administration; unpublished data from applicant's laboratory
Source text: This innovation is related with the use of glycyl-glutamine in the treatment and/or prophylaxis of depression disorder and/or anxiety, which meets all above-mentioned requirements, eliminates all disadvantages and provides some advantages. The purpose of the current invention is to use Glycyl-Glutamine (Gly-Gln) in the treatment and/or prophylaxis of depression and/or anxiety via its effects in the brain other than its metabolic products' (glycine and glutamine) separate effects. […] Glutamine exerts antidepressant effects by increasing gamma-aminobutyric acid (GABA) in the brain however Gly-Gln generates antidepressant effects by increasing serotonin levels in the brain.

rodents = test: Forced Swimming Test; assay type: in vivo, rats; conditions: intracerebroventricular, 100 nmol/10 µl, n=12
Source text: It has been proven as a result of the tests performed on animals that Glycyl-glutamine is therapeutic on depression and anxiety disorders. These aforementioned studies have been performed by means of "the Forced Swimming Test" method, which is the most applied animal model, used in antidepressant treatment surveys. The forced swimming test had been developed by Porsolt et al., (1978) and it is the most applied animal model in depression surveys especially the antidepressant treatment surveys. […] After the same animal is placed in the same tank twenty-four hours after the first time, it is observed that the time passes until inactivity reduces. Inactivity is expressed as losing behaviors of trying to escape in other words "behavioral helplessness". The forced swimming test is a similar response to learned helplessness. The efforts spent for an escape comes to an end for the animal, which understands it is exposed to a stress it will not be able to escape. Thus, it can be understood by that test model whether the antidepressant medications, which are administered before the second administration, show antidepressant effects or not. In practice, the post-treatment behaviors of the animal change for reducing behavioral helplessness. The time passed until inactivity is extended by means of acute or short-term antidepressant treatments and total time of inactivity is decreased. […] Because, it is an easy to apply practice, this model is used extensively (Cryan et al., 2002).
In Figure 1, the effect of intracerebroventricular Gly-Gln injection on the first term of inactivity. When, Gly-Gln has been administered centrally, it has extended the time passed until first inactivity compared to the control animals. While, the time passed until first inactivity of the rodents which have been centrally administered saline (10 µl) has been 14,9 ± 2,8 seconds (n=14), the time passed until first inactivity of the rodent which have been applied Gly-Gln (100 nmol/10 µl) by that same way has been increased to 28,1 ± 6,1 seconds (n=12), (p<0,05).
In Figure 2, the effect of intracerebroventricular Gly-Gln injection on the total term of inactivity. When, Gly-Gln has been administered centrally, it has reduced the total time time of inactivity compared to the control animals. While, the total inactivity time of the rodents which have been centrally administered saline (10 µl) has been 229.4 ± 8.9 seconds (n=14), the time passed until first inactivity of the rodent which have been applied Gly-Gln (100 nmol/10 µl) by the same way has been increased to 172.5 ± 12.8 seconds (n=12), (p<0,001).
In Figure 3, the effect of intracerebroventricular Gly-Gln injection on the escalation and swimming times. […]

storage time, diluted by saline (Storage stability; refrigerator at +4°C): 24 to 48 h
storage time, non-diluted form (Storage stability; refrigerator at -20°C): very long period of time
storage time, diluted by saline (Storage stability; room temperature): 10 to 12 h
Compound: NCC(=O)N[C@@H](CCC(N)=O)C(=O)O [Gly-Gln, glycyl-glutamine] (H-Gly-Gln-OH)
serotonin output at the nucleus accumbency section of the brain [1]: extremely increased
GABA levels in the brain (GABA levels in the brain): decrease
time passed until first inactivity (rodents; saline control 14,9 ± 2,8 seconds (n=14), p<0,05): 28,1 ± 6,1 seconds
swimming time (rodents; saline control 26,7 ± 2,9 seconds (n=14), p>0.05): 36,8 ± 4,3 seconds
escalation time (rodents; saline control 43,9 ± 7,0 seconds (n=14)): 90,8 ± 11,4 seconds
total inactivity time (rodents; saline control 229.4 ± 8.9 seconds (n=14), p<0,001): 172.5 ± 12.8 s
